Like-named read-outs stand apart in the source and are kept apart here.
Legend:
M2 (h) = M2 (h) (Homo sapiens (Human), UniProt P08172); assay: ExpresSProfile: muscarinic receptor 2, antagonist radioligand; assay type: binding; conditions: Test Concentration 1.0E−05 M
Y2 (h) = Y2 (h) (Homo sapiens (Human), UniProt P49146); assay: ExpresSProfile: neuropeptide Y receptor 2, agonist radioligand; assay type: binding; conditions: Test Concentration 1.0E−05 M
V1a (h) = V1a (h) (Homo sapiens (Human), UniProt P37288); assay: ExpresSProfile: V1a, agonist radioligand; assay type: binding; conditions: Test Concentration 1.0E−05 M
M3 (h) = M3 (h) (Homo sapiens (Human), UniProt P20309); assay: ExpresSProfile: muscarinic receptor 3, antagonist radioligand; assay type: binding; conditions: Test Concentration 1.0E−05 M
ETA (h) = ETA (h) (Homo sapiens (Human), UniProt P25101); assay: ExpresSProfile: endothelin receptor A, agonist radioligand; assay type: binding; conditions: Test Concentration 1.0E−05 M
D1 (h) = D1 (h) (Homo sapiens (Human), UniProt P21728); assay: ExpresSProfile: dopamine receptor 1, antagonist radioligand; assay type: binding; conditions: Test Concentration 1.0E−05 M
NTR1 = NTR1 (Homo sapiens (Human), UniProt P30989); assay: Radioligand binding assay NTR1 (example part II); conditions: 0.05 nM 125I-(Tyr3-neurotensin), 60 min at 4° C.; read-out: IC50 [nM] RLB
Procedure, shortened: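 Membranes from CHO cells recombinantly expressing human NTR1 incubated with 0.05 nM 125I-(Tyr3-neurotensin) and serially diluted test compounds. Bound radioligand quantified by scintillation counting; displacement expressed as IC50.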

SKCa channel = assay: ExpresSProfile: SKCa channel, antagonist radioligand; assay type: binding; conditions: Test Concentration 1.0E−05 M
MT1 (ML1A) (h) = MT1 (ML1A) (h) (Homo sapiens (Human), UniProt P48039); assay: ExpresSProfile: melatonin receptor 1, agonist radioligand; assay type: binding; conditions: Test Concentration 1.0E−05 M
GAL2 (h) = GAL2 (h) (Homo sapiens (Human), UniProt O43603); assay: ExpresSProfile: galanin receptor 2, agonist radioligand; assay type: binding; conditions: Test Concentration 1.0E−05 M
H2 (h) = H2 (h) (Homo sapiens (Human), UniProt P25021); assay: ExpresSProfile: histamine receptor 2, antagonist radioligand; assay type: binding; conditions: Test Concentration 1.0E−05 M
BZD (central) = assay: ExpresSProfile: benzodiazepine, agonist radioligand; assay type: binding; conditions: Test Concentration 1.0E−05 M
A1 (h) = A1 (h) (Homo sapiens (Human), UniProt P30542); assay: ExpresSProfile: adenosine receptor 1, antagonist radioligand; assay type: binding; conditions: Test Concentration 1.0E−05 M
VPAC1 (VIP1) (h) = VPAC1 (VIP1) (h) (Homo sapiens (Human), UniProt P32241); assay: ExpresSProfile: vasoactive intestinal polypeptide receptor 1, agonist radioligand; assay type: binding; conditions: Test Concentration 1.0E−05 M
CCR1 (h) = CCR1 (h) (Homo sapiens (Human), UniProt P32246); assay: ExpresSProfile: C-C chemokine receptor type 1, agonist radioligand; assay type: binding; conditions: Test Concentration 1.0E−05 M
5-HT2A (h) = 5-HT2A (h) (Homo sapiens (Human), UniProt P28223); assay: ExpresSProfile: 5-hydroxytryptamine receptor 2A, antagonist radioligand; assay type: binding; conditions: Test Concentration 1.0E−05 M
5-HT6 (h) = 5-HT6 (h) (Homo sapiens (Human), UniProt P50406); assay: ExpresSProfile: 5-hydroxytryptamine receptor 6, agonist radioligand; assay type: binding; conditions: Test Concentration 1.0E−05 M
alpha 1 (non-selective) = assay: ExpresSProfile: alpha1 adrenergic receptor, antagonist radioligand; assay type: binding; conditions: Test Concentration 1.0E−05 M
CXCR2 (IL-8B) (h) = CXCR2 (IL-8B) (h) (Homo sapiens (Human), UniProt P25025); assay: ExpresSProfile: C-X-C chemokine receptor type 2, agonist radioligand; assay type: binding; conditions: Test Concentration 1.0E−05 M
NTS1 (NT1) (h) = NTS1 (NT1) (h) (Homo sapiens (Human), UniProt P30989); assay: ExpresSProfile: neurotensin receptor 1, agonist radioligand; assay type: binding; conditions: Test Concentration 1.0E−05 M
beta 2 (h) = beta 2 (h) (Homo sapiens (Human), UniProt P07550); assay: ExpresSProfile: beta2 adrenergic receptor, agonist radioligand; assay type: binding; conditions: Test Concentration 1.0E−05 M
[1] = read-out: % Inhibition of Control Specific Binding
[2] = read-out: % of Control Specific Binding 1st
[3] = read-out: % of Control Specific Binding 2nd
[4] = read-out: % of Control Specific Binding Mean

VPAC1 (VIP1) (h), sequence (P32241 31-457): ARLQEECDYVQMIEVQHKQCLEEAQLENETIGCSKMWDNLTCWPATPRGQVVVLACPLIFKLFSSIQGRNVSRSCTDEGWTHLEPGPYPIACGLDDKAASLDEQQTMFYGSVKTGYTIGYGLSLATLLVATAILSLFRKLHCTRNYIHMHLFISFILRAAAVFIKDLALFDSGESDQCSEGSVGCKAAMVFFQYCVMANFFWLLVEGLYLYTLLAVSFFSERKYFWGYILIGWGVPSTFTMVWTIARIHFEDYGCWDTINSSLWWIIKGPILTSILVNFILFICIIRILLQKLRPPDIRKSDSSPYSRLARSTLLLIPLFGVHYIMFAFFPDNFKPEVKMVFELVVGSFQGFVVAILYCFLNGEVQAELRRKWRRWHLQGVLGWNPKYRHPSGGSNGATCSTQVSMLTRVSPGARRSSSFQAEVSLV
V1a (h), sequence (P37288 whole entry): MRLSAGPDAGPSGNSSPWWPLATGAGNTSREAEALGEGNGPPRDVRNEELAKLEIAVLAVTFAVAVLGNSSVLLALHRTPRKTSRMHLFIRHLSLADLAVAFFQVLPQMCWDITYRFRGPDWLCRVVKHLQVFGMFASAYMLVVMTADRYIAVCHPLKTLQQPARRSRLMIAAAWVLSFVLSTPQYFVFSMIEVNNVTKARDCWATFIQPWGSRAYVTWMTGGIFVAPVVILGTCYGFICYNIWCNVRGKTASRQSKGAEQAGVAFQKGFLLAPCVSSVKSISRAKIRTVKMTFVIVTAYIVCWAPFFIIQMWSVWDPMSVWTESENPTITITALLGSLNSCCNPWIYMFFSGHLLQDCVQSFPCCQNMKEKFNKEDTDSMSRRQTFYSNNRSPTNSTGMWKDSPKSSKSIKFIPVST
D1 (h), sequence (P21728 whole entry): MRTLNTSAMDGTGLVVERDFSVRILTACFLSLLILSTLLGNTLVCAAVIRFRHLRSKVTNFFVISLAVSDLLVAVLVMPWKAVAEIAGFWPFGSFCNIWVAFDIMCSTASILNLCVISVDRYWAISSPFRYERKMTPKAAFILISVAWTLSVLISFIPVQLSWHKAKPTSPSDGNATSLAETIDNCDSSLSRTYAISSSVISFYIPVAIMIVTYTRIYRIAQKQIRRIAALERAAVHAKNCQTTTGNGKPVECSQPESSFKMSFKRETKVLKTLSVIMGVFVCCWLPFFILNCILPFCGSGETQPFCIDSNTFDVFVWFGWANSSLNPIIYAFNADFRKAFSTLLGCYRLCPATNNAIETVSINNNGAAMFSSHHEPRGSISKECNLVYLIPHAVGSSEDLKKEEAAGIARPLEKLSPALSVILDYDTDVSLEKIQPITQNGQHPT
GAL2 (h), sequence (O43603 whole entry): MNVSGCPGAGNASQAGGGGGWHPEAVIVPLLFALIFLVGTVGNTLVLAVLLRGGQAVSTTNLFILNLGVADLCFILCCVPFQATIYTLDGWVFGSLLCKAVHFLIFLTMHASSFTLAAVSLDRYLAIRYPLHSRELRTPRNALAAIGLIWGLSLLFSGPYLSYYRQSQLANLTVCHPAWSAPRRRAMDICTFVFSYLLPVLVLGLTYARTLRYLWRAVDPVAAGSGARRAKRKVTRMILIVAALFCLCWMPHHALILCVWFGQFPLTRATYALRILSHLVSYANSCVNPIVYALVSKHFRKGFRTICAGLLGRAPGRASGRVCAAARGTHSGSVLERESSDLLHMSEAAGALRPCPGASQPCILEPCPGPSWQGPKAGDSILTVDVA
A1 (h), sequence (P30542 whole entry): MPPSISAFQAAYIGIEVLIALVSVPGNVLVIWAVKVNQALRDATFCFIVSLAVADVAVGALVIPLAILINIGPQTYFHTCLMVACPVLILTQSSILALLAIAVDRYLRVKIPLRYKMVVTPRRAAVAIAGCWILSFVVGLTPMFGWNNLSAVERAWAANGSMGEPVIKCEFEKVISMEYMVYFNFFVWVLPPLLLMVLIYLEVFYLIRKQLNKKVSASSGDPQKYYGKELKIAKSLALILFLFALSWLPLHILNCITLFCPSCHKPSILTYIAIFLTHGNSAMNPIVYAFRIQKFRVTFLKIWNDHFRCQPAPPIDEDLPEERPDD
MT1 (ML1A) (h), sequence (P48039 whole entry): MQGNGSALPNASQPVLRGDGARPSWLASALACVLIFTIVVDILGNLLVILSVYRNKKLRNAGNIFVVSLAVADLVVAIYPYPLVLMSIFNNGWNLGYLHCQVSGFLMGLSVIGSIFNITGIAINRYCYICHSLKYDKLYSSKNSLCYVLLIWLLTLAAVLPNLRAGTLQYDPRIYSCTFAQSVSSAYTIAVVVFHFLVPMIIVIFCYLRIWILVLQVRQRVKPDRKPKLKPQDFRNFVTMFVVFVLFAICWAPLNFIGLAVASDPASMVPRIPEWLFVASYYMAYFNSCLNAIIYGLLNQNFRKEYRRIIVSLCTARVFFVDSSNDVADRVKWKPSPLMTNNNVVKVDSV
CXCR2 (IL-8B) (h), sequence (P25025 whole entry): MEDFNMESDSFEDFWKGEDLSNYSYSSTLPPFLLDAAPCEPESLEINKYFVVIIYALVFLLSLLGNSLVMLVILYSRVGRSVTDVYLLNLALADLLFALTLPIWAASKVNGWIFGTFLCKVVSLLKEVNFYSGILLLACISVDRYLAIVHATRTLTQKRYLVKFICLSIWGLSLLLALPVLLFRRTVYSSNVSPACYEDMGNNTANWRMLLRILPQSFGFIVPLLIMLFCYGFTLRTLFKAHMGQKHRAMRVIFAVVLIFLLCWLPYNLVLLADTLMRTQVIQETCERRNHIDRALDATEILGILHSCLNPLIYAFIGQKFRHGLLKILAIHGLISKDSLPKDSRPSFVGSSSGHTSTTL
H2 (h), sequence (P25021 whole entry): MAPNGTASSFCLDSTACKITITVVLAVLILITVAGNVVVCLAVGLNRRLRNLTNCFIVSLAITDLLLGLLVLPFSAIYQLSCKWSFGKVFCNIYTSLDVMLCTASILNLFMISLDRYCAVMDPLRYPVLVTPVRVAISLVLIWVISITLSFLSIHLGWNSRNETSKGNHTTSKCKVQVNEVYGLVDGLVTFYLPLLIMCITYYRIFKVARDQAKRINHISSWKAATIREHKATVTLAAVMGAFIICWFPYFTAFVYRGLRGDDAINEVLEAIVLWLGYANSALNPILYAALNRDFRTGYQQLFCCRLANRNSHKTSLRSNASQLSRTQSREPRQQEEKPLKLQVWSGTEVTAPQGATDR
ETA (h), sequence (P25101 21-427): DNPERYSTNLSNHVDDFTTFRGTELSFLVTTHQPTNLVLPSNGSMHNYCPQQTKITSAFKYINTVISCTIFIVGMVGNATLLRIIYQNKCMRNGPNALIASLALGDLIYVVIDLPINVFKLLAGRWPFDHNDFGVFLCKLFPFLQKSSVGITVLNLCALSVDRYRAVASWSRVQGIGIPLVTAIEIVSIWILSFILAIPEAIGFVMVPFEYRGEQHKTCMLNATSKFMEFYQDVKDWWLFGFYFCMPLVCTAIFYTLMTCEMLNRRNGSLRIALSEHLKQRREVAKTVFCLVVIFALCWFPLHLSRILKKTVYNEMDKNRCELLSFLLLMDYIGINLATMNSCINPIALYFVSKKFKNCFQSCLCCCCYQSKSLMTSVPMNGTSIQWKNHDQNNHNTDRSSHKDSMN
beta 2 (h), sequence (P07550 whole entry): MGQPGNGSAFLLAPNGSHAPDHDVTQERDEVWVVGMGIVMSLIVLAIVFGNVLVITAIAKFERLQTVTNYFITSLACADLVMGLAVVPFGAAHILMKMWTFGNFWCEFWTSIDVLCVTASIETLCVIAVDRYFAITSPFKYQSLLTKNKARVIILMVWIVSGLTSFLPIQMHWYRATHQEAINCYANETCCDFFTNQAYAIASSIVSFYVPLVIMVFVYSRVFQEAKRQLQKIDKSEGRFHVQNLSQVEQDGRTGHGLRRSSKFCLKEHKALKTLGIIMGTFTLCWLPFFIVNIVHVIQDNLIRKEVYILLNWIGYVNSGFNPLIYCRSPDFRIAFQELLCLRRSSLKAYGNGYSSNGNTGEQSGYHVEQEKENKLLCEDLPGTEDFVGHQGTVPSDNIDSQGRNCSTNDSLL
5-HT2A (h), sequence (P28223 whole entry): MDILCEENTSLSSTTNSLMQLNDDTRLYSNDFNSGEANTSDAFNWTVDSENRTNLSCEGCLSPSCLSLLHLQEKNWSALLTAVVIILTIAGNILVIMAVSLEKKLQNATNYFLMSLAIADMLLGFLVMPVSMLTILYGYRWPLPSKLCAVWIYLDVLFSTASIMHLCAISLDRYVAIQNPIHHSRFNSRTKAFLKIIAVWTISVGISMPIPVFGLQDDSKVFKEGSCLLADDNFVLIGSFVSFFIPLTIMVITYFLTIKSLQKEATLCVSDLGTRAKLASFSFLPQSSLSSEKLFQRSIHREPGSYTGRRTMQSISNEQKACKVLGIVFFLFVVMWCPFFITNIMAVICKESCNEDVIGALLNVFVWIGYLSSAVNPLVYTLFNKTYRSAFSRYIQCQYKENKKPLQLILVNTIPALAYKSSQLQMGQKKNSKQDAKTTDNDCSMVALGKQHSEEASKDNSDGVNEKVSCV
Y2 (h), sequence (P49146 whole entry): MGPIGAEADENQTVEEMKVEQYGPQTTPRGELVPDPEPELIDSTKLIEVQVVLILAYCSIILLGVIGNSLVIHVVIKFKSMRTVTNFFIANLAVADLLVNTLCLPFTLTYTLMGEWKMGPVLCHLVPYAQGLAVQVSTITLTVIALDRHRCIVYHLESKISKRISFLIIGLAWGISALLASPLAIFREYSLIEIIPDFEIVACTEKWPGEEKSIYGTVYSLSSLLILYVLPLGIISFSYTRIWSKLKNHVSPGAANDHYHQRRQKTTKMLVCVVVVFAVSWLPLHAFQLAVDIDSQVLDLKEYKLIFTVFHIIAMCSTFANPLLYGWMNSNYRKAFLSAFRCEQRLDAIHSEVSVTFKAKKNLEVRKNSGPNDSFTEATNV

COc1cccc(OC)c1-c1cc(C(=O)NC2(C(=O)O)C3CC4CC(C3)CC2C4)nn1-c1ccc(C(=O)N(C)CCCN(C)CCCN(C)C(=O)CN2CCN(CC(=O)O)CCN(CC(=O)O)CCN(CC(=O)O)CC2)cc1C(C)C (stereo not drawn) [(IIIa), 2-{[1-{4-[(3-{[3-(DOTA-methyl-amino)-propyl]-methyl-amino}-propyl)-methyl-carbamoyl]-2-isopropyl-phenyl}-5-(2,6-dimethoxy-phenyl)-1H-pyrazole-3-carbonyl]-amino}-adamantane-2-carboxylic acid]
inhibition at 10 µM (M2 (h); [1]): -17% | remaining activity at 10 µM (M2 (h); [2]): 124% | remaining activity at 10 µM (M2 (h); [3]): 111% | remaining activity at 10 µM (M2 (h); [4]): 117% | inhibition at 10 µM (Y2 (h); [1]): -23% | remaining activity at 10 µM (Y2 (h); [2]): 130% | remaining activity at 10 µM (Y2 (h); [3]): 116% | remaining activity at 10 µM (Y2 (h); [4]): 123% | inhibition at 10 µM (V1a (h); [1]): 6% | remaining activity at 10 µM (V1a (h); [2]): 94.1% | remaining activity at 10 µM (V1a (h); [3]): 93% | remaining activity at 10 µM (V1a (h); [4]): 93.5% | inhibition at 10 µM (M3 (h); [1]): -23% | remaining activity at 10 µM (M3 (h); [2]): 122% | remaining activity at 10 µM (M3 (h); [3]): 124% | remaining activity at 10 µM (M3 (h); [4]): 124% | inhibition at 10 µM (ETA (h); [1]): -10% | remaining activity at 10 µM (ETA (h); [2]): 114% | remaining activity at 10 µM (ETA (h); [3]): 105% | remaining activity at 10 µM (ETA (h); [4]): 110% | inhibition at 10 µM (D1 (h); [1]): -5% | remaining activity at 10 µM (D1 (h); [2]): 114% | remaining activity at 10 µM (D1 (h); [3]): 96.3% | remaining activity at 10 µM (D1 (h); [4]): 105% | IC50 (NTR1): 2.9 nM | % Inhibition of Control Specific Binding (SKCa channel): 4% | % of Control Specific Binding 1st (SKCa channel): 97.3% | % of Control Specific Binding 2nd (SKCa channel): 95.2% | % of Control Specific Binding Mean (SKCa channel): 96.2% | inhibition at 10 µM (MT1 (ML1A) (h); [1]): 1% | remaining activity at 10 µM (MT1 (ML1A) (h); [2]): 103% | remaining activity at 10 µM (MT1 (ML1A) (h); [3]): 95.9% | remaining activity at 10 µM (MT1 (ML1A) (h); [4]): 99.3% | inhibition at 10 µM (GAL2 (h); [1]): 1% | remaining activity at 10 µM (GAL2 (h); [2]): 96.5% | remaining activity at 10 µM (GAL2 (h); [3]): 102% | remaining activity at 10 µM (GAL2 (h); [4]): 99.3% | inhibition at 10 µM (H2 (h); [1]): -4% | remaining activity at 10 µM (H2 (h); [2]): 106% | remaining activity at 10 µM (H2 (h); [3]): 102% | remaining activity at 10 µM (H2 (h); [4]): 104% | % Inhibition of Control Specific Binding (BZD (central)): −16% | % of Control Specific Binding 1st (BZD (central)): 109.4% | % of Control Specific Binding 2nd (BZD (central)): 122.6% | % of Control Specific Binding Mean (BZD (central)): 116.0% | inhibition at 10 µM (A1 (h); [1]): -24% | remaining activity at 10 µM (A1 (h); [2]): 143% | remaining activity at 10 µM (A1 (h); [3]): 104% | remaining activity at 10 µM (A1 (h); [4]): 124% | inhibition at 10 µM (VPAC1 (VIP1) (h); [1]): -6% | remaining activity at 10 µM (VPAC1 (VIP1) (h); [2]): 104% | remaining activity at 10 µM (VPAC1 (VIP1) (h); [3]): 107% | remaining activity at 10 µM (VPAC1 (VIP1) (h); [4]): 106% | inhibition at 10 µM (CCR1 (h); [1]): -6% | remaining activity at 10 µM (CCR1 (h); [2]): 103% | remaining activity at 10 µM (CCR1 (h); [3]): 109% | remaining activity at 10 µM (CCR1 (h); [4]): 106% | inhibition at 10 µM (5-HT2A (h); [1]): -2% | remaining activity at 10 µM (5-HT2A (h); [2]): 101% | remaining activity at 10 µM (5-HT2A (h); [3]): 103% | remaining activity at 10 µM (5-HT2A (h); [4]): 102% | inhibition at 10 µM (5-HT6 (h); [1]): -6% | remaining activity at 10 µM (5-HT6 (h); [2]): 106% | remaining activity at 10 µM (5-HT6 (h); [3]): 105% | remaining activity at 10 µM (5-HT6 (h); [4]): 106% | % Inhibition of Control Specific Binding (alpha 1 (non-selective)): −9% | % of Control Specific Binding 1st (alpha 1 (non-selective)): 106.2% | % of Control Specific Binding 2nd (alpha 1 (non-selective)): 111.1% | % of Control Specific Binding Mean (alpha 1 (non-selective)): 108.7% | inhibition at 10 µM (CXCR2 (IL-8B) (h); [1]): -9% | remaining activity at 10 µM (CXCR2 (IL-8B) (h); [2]): 119% | remaining activity at 10 µM (CXCR2 (IL-8B) (h); [3]): 99.6% | remaining activity at 10 µM (CXCR2 (IL-8B) (h); [4]): 109% | inhibition at 10 µM (NTS1 (NT1) (h); [1]): 99% | remaining activity at 10 µM (NTS1 (NT1) (h); [2]): 2.7% | remaining activity at 10 µM (NTS1 (NT1) (h); [3]): -0.1% | remaining activity at 10 µM (NTS1 (NT1) (h); [4]): 1.3% | inhibition at 10 µM (beta 2 (h); [1]): -2% | remaining activity at 10 µM (beta 2 (h); [2]): 107% | remaining activity at 10 µM (beta 2 (h); [3]): 96.5% | remaining activity at 10 µM (beta 2 (h); [4]): 102%
